Assay results from PMC3445516 (PLoS ONE, 2012).

Key:
Test in all cases: Ambit kinase profiling, competition binding
[1] = target: T1, ABL1(M351T) (Homo sapiens, UniProt P00519, M351T); conditions: compound concentration 10 uM, read-out: Percent Competition
T1 construct: purchased Ambit Biosciences (KINOMEscan)
Excerpt: (§1) Supplement pone.0044653.s004.xls, sheet "Compound 122" | column: Percent Competition

[2] = target: T2, ABL1(Q252H) (Homo sapiens, UniProt P00519, Q252H); conditions: compound concentration 10 uM, read-out: Percent Competition
T2 construct: purchased Ambit Biosciences (KINOMEscan)
Excerpt: as §1

[3] = target: T3, ABL1(T315I) (Homo sapiens, UniProt P00519, T315I); conditions: compound concentration 10 uM, read-out: Percent Competition
T3 construct: purchased Ambit Biosciences (KINOMEscan)
Excerpt: as §1

[4] = target: T4, ACVR2A (Homo sapiens, UniProt P27037); conditions: compound concentration 10 uM, read-out: Percent Competition
T4 construct: purchased Ambit Biosciences (KINOMEscan)
Excerpt: as §1

[5] = target: T5, AKT3 (Homo sapiens, UniProt Q9Y243); conditions: compound concentration 10 uM, read-out: Percent Competition
T5 construct: purchased Ambit Biosciences (KINOMEscan)
Excerpt: as §1

[6] = target: T6, BIKE (Homo sapiens, UniProt Q9NSY1); conditions: compound concentration 10 uM, read-out: Percent Competition
T6 construct: purchased Ambit Biosciences (KINOMEscan)
Excerpt: as §1

[7] = target: T7, BMPR2 (Homo sapiens, UniProt Q13873); conditions: compound concentration 10 uM
T7 construct: purchased Ambit Biosciences (KINOMEscan)
Excerpt: as §1

[8] = target: T8, CLK3 (Homo sapiens, UniProt P49761); conditions: compound concentration 10 uM, read-out: Percent Competition
T8 construct: purchased Ambit Biosciences (KINOMEscan)
Excerpt: as §1

[9] = target: T9, CSF1R (Homo sapiens, UniProt P07333); conditions: compound concentration 10 uM, read-out: Percent Competition
T9 construct: purchased Ambit Biosciences (KINOMEscan)
Excerpt: as §1

[10] = target: T10, EPHB1 (Homo sapiens, UniProt P54762); conditions: compound concentration 10 uM, read-out: Percent Competition
T10 construct: purchased Ambit Biosciences (KINOMEscan)
Excerpt: as §1

[11] = target: T11, ERK5 (Homo sapiens, UniProt Q13164); conditions: compound concentration 10 uM, read-out: Percent Competition
T11 construct: purchased Ambit Biosciences (KINOMEscan)
Excerpt: as §1

[12] = target: T12, FGFR2 (Homo sapiens, UniProt P21802); conditions: compound concentration 10 uM, read-out: Percent Competition
T12 construct: purchased Ambit Biosciences (KINOMEscan)
Excerpt: as §1

[13] = target: T13, JAK3(JH1domain-catalytic) (Homo sapiens, UniProt P52333); conditions: compound concentration 10 uM, read-out: Percent Competition
T13 construct: JAK3(JH1domain-catalytic); purchased Ambit Biosciences (KINOMEscan)
Excerpt: as §1

[14] = target: T14, KIT(V559D,V654A) (Homo sapiens, UniProt P10721, V559D/V654A); conditions: compound concentration 10 uM, read-out: Percent Competition
T14 construct: purchased Ambit Biosciences (KINOMEscan)
Excerpt: as §1

[15] = target: T15, LIMK2 (Homo sapiens, UniProt P53671); conditions: compound concentration 10 uM, read-out: Percent Competition
T15 construct: purchased Ambit Biosciences (KINOMEscan)
Excerpt: as §1

[16] = target: T16, LKB1 (Homo sapiens, UniProt Q15831); conditions: compound concentration 10 uM, read-out: Percent Competition
T16 construct: purchased Ambit Biosciences (KINOMEscan)
Excerpt: as §1

[17] = target: T17, LOK (Homo sapiens, UniProt O94804); conditions: compound concentration 10 uM
T17 construct: purchased Ambit Biosciences (KINOMEscan)
Excerpt: as §1

[18] = target: T18, MAP4K3 (Homo sapiens, UniProt Q8IVH8); conditions: compound concentration 10 uM
T18 construct: purchased Ambit Biosciences (KINOMEscan)
Excerpt: as §1

[19] = target: T19, MEK1 (Homo sapiens, UniProt Q02750); conditions: compound concentration 10 uM, read-out: Percent Competition
T19 construct: purchased Ambit Biosciences (KINOMEscan)
Excerpt: as §1

[20] = target: T20, MET (Homo sapiens, UniProt P08581); conditions: compound concentration 10 uM
T20 construct: purchased Ambit Biosciences (KINOMEscan)
Excerpt: as §1

[21] = target: T21, MKNK2 (Homo sapiens, UniProt Q9HBH9); conditions: compound concentration 10 uM, read-out: Percent Competition
T21 construct: purchased Ambit Biosciences (KINOMEscan)
Excerpt: as §1

[22] = target: T22, NEK1 (Homo sapiens, UniProt Q96PY6); conditions: compound concentration 10 uM, read-out: Percent Competition
T22 construct: purchased Ambit Biosciences (KINOMEscan)
Excerpt: as §1

[23] = target: T23, NEK2 (Homo sapiens, UniProt P51955); conditions: compound concentration 10 uM, read-out: Percent Competition
T23 construct: purchased Ambit Biosciences (KINOMEscan)
Excerpt: as §1

[24] = target: T24, PDGFRA (Homo sapiens, UniProt P16234); conditions: compound concentration 10 uM, read-out: Percent Competition
T24 construct: purchased Ambit Biosciences (KINOMEscan)
Excerpt: as §1

[25] = target: T25, PDGFRB (Homo sapiens, UniProt P09619); conditions: compound concentration 10 uM, read-out: Percent Competition
T25 construct: purchased Ambit Biosciences (KINOMEscan)
Excerpt: as §1

[26] = target: T26, PIK3C2B (Homo sapiens, UniProt O00750); conditions: compound concentration 10 uM, read-out: Percent Competition
T26 construct: purchased Ambit Biosciences (KINOMEscan)
Excerpt: as §1

[27] = target: T27, PIM1 (Homo sapiens, UniProt P11309); conditions: compound concentration 10 uM, read-out: Percent Competition
T27 construct: purchased Ambit Biosciences (KINOMEscan)
Excerpt: as §1

[28] = target: T28, PKN1 (Homo sapiens, UniProt Q16512); conditions: compound concentration 10 uM, read-out: Percent Competition
T28 construct: purchased Ambit Biosciences (KINOMEscan)
Excerpt: as §1

[29] = target: T29, PRKG2 (Homo sapiens, UniProt Q13237); conditions: compound concentration 10 uM, read-out: Percent Competition
T29 construct: purchased Ambit Biosciences (KINOMEscan)
Excerpt: as §1

[30] = target: T30, RET(V804L) (Homo sapiens, UniProt P07949, V804L); conditions: compound concentration 10 uM, read-out: Percent Competition
T30 construct: purchased Ambit Biosciences (KINOMEscan)
Excerpt: as §1

[31] = target: T31, RIOK1 (Homo sapiens, UniProt Q9BRS2); conditions: compound concentration 10 uM, read-out: Percent Competition
T31 construct: purchased Ambit Biosciences (KINOMEscan)
Excerpt: as §1

[32] = target: T32, RPS6KA2(Kin.Dom.2-C-terminal) (Homo sapiens, UniProt Q15349); conditions: compound concentration 10 uM, read-out: Percent Competition
T32 construct: RPS6KA2(Kin.Dom.2-C-terminal); purchased Ambit Biosciences (KINOMEscan)
Excerpt: as §1

[33] = target: T33, RPS6KA4(Kin.Dom.1-N-terminal) (Homo sapiens, UniProt O75676); conditions: compound concentration 10 uM, read-out: Percent Competition
T33 construct: RPS6KA4(Kin.Dom.1-N-terminal); purchased Ambit Biosciences (KINOMEscan)
Excerpt: as §1

[34] = target: T34, SRMS (Homo sapiens, UniProt Q9H3Y6); conditions: compound concentration 10 uM, read-out: Percent Competition
T34 construct: purchased Ambit Biosciences (KINOMEscan)
Excerpt: as §1

[35] = target: T35, SRPK2 (Homo sapiens, UniProt P78362); conditions: compound concentration 10 uM, read-out: Percent Competition
T35 construct: purchased Ambit Biosciences (KINOMEscan)
Excerpt: as §1

[36] = target: T36, SgK110 (Homo sapiens, UniProt P0C264); conditions: compound concentration 10 uM, read-out: Percent Competition
T36 construct: purchased Ambit Biosciences (KINOMEscan)
Excerpt: as §1

[37] = target: T37, TAK1 (Homo sapiens, UniProt O43318); conditions: compound concentration 10 uM, read-out: Percent Competition
T37 construct: purchased Ambit Biosciences (KINOMEscan)
Excerpt: as §1

[38] = target: T38, TESK1 (Homo sapiens, UniProt Q15569); conditions: compound concentration 10 uM, read-out: Percent Competition
T38 construct: purchased Ambit Biosciences (KINOMEscan)
Excerpt: as §1

[39] = target: T39, TNK2 (Homo sapiens, UniProt Q07912); conditions: compound concentration 10 uM, read-out: Percent Competition
T39 construct: purchased Ambit Biosciences (KINOMEscan)
Excerpt: as §1

[40] = target: T40, WEE2 (Homo sapiens, UniProt P0C1S8); conditions: compound concentration 10 uM, read-out: Percent Competition
T40 construct: purchased Ambit Biosciences (KINOMEscan)
Excerpt: as §1

Fc1ccc(-c2c(-c3ccncc3)[nH]c3nccnc23)cc1 [RO1155697-000-005]
inhibition at 10 µM [1]: < 50% | inhibition at 10 µM [2]: < 50% | inhibition at 10 µM [3]: < 50% | inhibition at 10 µM [4]: < 50% | inhibition at 10 µM [5]: < 50% | inhibition at 10 µM [6]: < 50% | Percent Competition [7]: <50% | inhibition at 10 µM [8]: < 50% | inhibition at 10 µM [9]: < 50% | inhibition at 10 µM [10]: < 50% | inhibition at 10 µM [11]: < 50% | inhibition at 10 µM [12]: < 50% | inhibition at 10 µM [13]: < 50% | inhibition at 10 µM [14]: < 50% | inhibition at 10 µM [15]: < 50% | inhibition at 10 µM [16]: < 50% | Percent Competition [17]: <50% | Percent Competition [18]: <50% | inhibition at 10 µM [19]: < 50% | Percent Competition [20]: <50% | inhibition at 10 µM [21]: < 50% | inhibition at 10 µM [22]: < 50% | inhibition at 10 µM [23]: < 50% | inhibition at 10 µM [24]: < 50% | inhibition at 10 µM [25]: < 50% | inhibition at 10 µM [26]: < 50% | inhibition at 10 µM [27]: < 50% | inhibition at 10 µM [28]: < 50% | inhibition at 10 µM [29]: < 50% | inhibition at 10 µM [30]: < 50% | inhibition at 10 µM [31]: < 50% | inhibition at 10 µM [32]: < 50% | inhibition at 10 µM [33]: < 50% | inhibition at 10 µM [34]: < 50% | inhibition at 10 µM [35]: < 50% | inhibition at 10 µM [36]: < 50% | inhibition at 10 µM [37]: < 50% | inhibition at 10 µM [38]: < 50% | inhibition at 10 µM [39]: < 50% | inhibition at 10 µM [40]: < 50%
